Kd data for one compound are collected here from article PMC9618858, “β-Carboline dimers inhibit the tumor proliferation by the cell cycle arrest of sarcoma through intercalating to Cyclin-A2” (Frontiers in Immunology, 2022).

SMILES strings stand for the structures. pKd: −log10 of the molar value.

In the experiment the target is T1, Cyclin-A2 (CCNA2) (Homo sapiens, UniProt P20248).
T1 construct: recombinant human CCNA2 (rCCNA2), GST-tagged expression in BL21 (DE3), tag cleaved
Kind of experiment: ITC with purified CCNA2; supported by CETSA in MG-63 lysate and co-IP (blocks CCNA2-CDK2). It counts as binding.

T1 sequence (P20248 whole entry): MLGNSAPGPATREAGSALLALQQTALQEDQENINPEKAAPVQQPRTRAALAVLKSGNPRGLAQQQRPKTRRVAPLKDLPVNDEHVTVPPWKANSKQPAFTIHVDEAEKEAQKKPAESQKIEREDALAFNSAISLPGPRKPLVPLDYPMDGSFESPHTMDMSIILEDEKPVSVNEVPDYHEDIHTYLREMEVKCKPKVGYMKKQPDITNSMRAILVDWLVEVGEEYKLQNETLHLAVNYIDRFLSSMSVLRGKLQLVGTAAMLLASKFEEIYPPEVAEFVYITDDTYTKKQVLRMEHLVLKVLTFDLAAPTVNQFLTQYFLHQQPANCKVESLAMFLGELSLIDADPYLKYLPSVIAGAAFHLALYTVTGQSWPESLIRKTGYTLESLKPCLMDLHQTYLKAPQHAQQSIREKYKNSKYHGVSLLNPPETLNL

As a reminder, the pKd is the Kd on a negative log10 scale, so that one unit is a factor of ten. Read a high pKd as a small Kd. `Cc1ccccc1Cn1c2ccccc2c2cc(C(=O)OCCCCCOC(=O)c3cc4c5ccccc5n(Cc5ccccc5C)c4cn3)ncc21` [Comp1] had a negative-log Kd (pKd) of 2.54.
